The text below walks through data of ChEMBL document CHEMBL3832881, “CO-ADD antimicrobial screening data of OSM samples” (2017).

Converted amounts (≈) assume the structure as drawn.

Series [1] has as its system Staphylococcus aureus. The series is described as follows: Antibacterial activity against Staphylococcus aureus MRSA ATCC 43300; Growth inhibition at 32 ug/mL in CAMBH media using NBS plates. The format is functional, ATCC 43300; MRSA. The settings on record: ASSAY_TEST Inhibition of Bacterial Growth, CONC 32 ug.mL-1, detection method Absorption (OD600), MEDIA CAMHB, plate type NBS, 384well, time 18 hr.

The subject of series [2] is Acinetobacter baumannii. The series is described as follows: Antibacterial activity against Acinetobacter baumannii ATCC 19606; MIC in CAMBH media using NBS plates. The format is functional, ATCC 19606; Type strain. The settings on record: Type strain, ASSAY_TEST Inhibition of Bacterial Growth, detection method Absorption (OD600), MEDIA CAMHB, plate type NBS, 384well, time 18 hr.

Series [3] deals with Klebsiella pneumoniae. The series is described as follows: Antibacterial activity against Klebsiella pneumoniae MDR ATCC 70063; Growth inhibition at 32 ug/mL in CAMBH media using NBS plates. The format is functional, ATCC 700603; MDR. The settings on record: ATCC 700603, ASSAY_TEST Inhibition of Bacterial Growth, CONC 32 ug.mL-1, detection method Absorption (OD600), MEDIA CAMHB, plate type NBS, 384well, time 18 hr.

The test system of series [4] is Cryptococcus neoformans. The series is described as follows: Antifungal activity against Cryptococcus neoformans H99 ATCC 208821; Growth inhibition at 32 ug/mL in YNB media using NBS plates. The format is functional, ATCC 208821; H99 Type strain. The settings on record: H99 Type strain, ASSAY_TEST Inhibition of Fungal Growth, CONC 32 ug.mL-1, detection method Resazurin, Absorption (OD600-OD570), plate type NBS, 384well, time 18 hr. A general note: The colour change of resazurin is a common sign of viable cells or microbes.

Series [5] has as its system Escherichia coli. The series is described as follows: Antibacterial activity against Escherichia coli ATCC 25922; Growth inhibition at 32 ug/mL in CAMBH media using NBS plates. The format is functional, ATCC 25922; Type strain. The settings on record: Type strain, ASSAY_TEST Inhibition of Bacterial Growth, CONC 32 ug.mL-1, detection method Absorption (OD600), MEDIA CAMHB, plate type NBS, 384well, time 18 hr.

Series [6] concerns Acinetobacter baumannii. The series is described as follows: Antibacterial activity against Acinetobacter baumannii ATCC 19606; Growth inhibition at 32 ug/mL in CAMBH media using NBS plates. The format is functional, ATCC 19606; Type strain. The settings on record: Type strain, ASSAY_TEST Inhibition of Bacterial Growth, CONC 32 ug.mL-1, detection method Absorption (OD600), MEDIA CAMHB, plate type NBS, 384well, time 18 hr.

The test system of series [7] is Klebsiella pneumoniae. Briefly: Antibacterial activity against Klebsiella pneumoniae MDR ATCC 70063; MIC in CAMBH media using NBS plates. The format is functional, ATCC 700603; MDR. The settings on record: ATCC 700603, ASSAY_TEST Inhibition of Bacterial Growth, detection method Absorption (OD600), MEDIA CAMHB, plate type NBS, 384well, time 18 hr.
Series [8] deals with Pseudomonas aeruginosa. Briefly: Antibacterial activity against Pseudomonas aeruginosa ATCC 27853; MIC in CAMBH media using NBS plates. The format is functional, ATCC 27853; Type strain. The settings on record: Type strain, ASSAY_TEST Inhibition of Bacterial Growth, detection method Absorption (OD600), MEDIA CAMHB, plate type NBS, 384well, time 18 hr.
Series [9] deals with Staphylococcus aureus. Briefly: Antibacterial activity against Staphylococcus aureus MRSA ATCC 43300; MIC in CAMBH media using NBS plates. The format is functional, ATCC 43300; MRSA. The settings on record: ASSAY_TEST Inhibition of Bacterial Growth, detection method Absorption (OD600), MEDIA CAMHB, plate type NBS, 384well, time 18 hr.
Series [10] concerns Cryptococcus neoformans. Briefly: Antifungal activity against Cryptococcus neoformans H99 ATCC 208821; MIC in YNB media using NBS plates. The format is functional, ATCC 208821; H99 Type strain. The settings on record: H99 Type strain, ASSAY_TEST Inhibition of Fungal Growth, detection method Resazurin, Absorption (OD600-OD570), plate type NBS, 384well, time 18 hr.
The test system of series [11] is Escherichia coli. Briefly: Antibacterial activity against Escherichia coli ATCC 25922; MIC in CAMBH media using NBS plates. The format is functional, ATCC 25922; Type strain. The settings on record: Type strain, ASSAY_TEST Inhibition of Bacterial Growth, detection method Absorption (OD600), MEDIA CAMHB, plate type NBS, 384well, time 18 hr.
A short description of series [12]: Cytotoxicity against HEK293 cells; CC50 by Resazurin assay in DMEM (10% FBS) media using TC plates. The format is toxicity, cell-based, ATCC CRL1573. Details: time 18 hr. The settings on record: human.
In series [13] the test system is Pseudomonas aeruginosa. Briefly: Antibacterial activity against Pseudomonas aeruginosa ATCC 27853; Growth inhibition at 32 ug/mL in CAMBH media using NBS plates. The settings on record: Type strain, ASSAY_TEST Inhibition of Bacterial Growth, CONC 32 ug.mL-1, detection method Absorption (OD600), MEDIA CAMHB, plate type NBS, 384well, time 18 hr. The format is functional, ATCC 27853; Type strain.

The test system of series [14] is Candida albicans. The series is described as follows: Antifungal activity against Candida albicans ATCC 90028; Growth inhibition at 32 ug/mL in YNB media using NBS plates. The format is functional, ATCC 90028; CLSI reference. The settings on record: CLSI reference, ASSAY_TEST Inhibition of Fungal Growth, CONC 32 ug.mL-1, detection method Absorption (OD600), plate type NBS, 384well, time 18 hr.

Series [15] relates to Candida albicans. The series is described as follows: Antifungal activity against Candida albicans ATCC 90028; MIC in YNB media using NBS plates. The format is functional, ATCC 90028; CLSI reference. The settings on record: CLSI reference, ASSAY_TEST Inhibition of Fungal Growth, detection method Absorption (OD630), plate type NBS, 384well, time 18 hr.

Turning to `Clc1ccc(-c2nnc3cncc(OCCc4ccccc4)n23)cc1`, the inhibition (as a rule, the relative decrease from the control value, in per cent) at 32 µg/mL with Staphylococcus aureus [1] is 14.5%; in the series on Klebsiella pneumoniae [3], 7.5%; in the series with Cryptococcus neoformans [4] it was -0.5%; with Escherichia coli [5] it was 5.2%; in the series with Acinetobacter baumannii [6] it was 5.7%; with Pseudomonas aeruginosa [13], 8.6%. In the series on Candida albicans [14], the inhibition at 32 µg/mL came out at 88.8%. The MIC in the series with Acinetobacter baumannii [2], against Klebsiella pneumoniae [7], in the series with Pseudomonas aeruginosa [8], against Staphylococcus aureus [9], in the series on Cryptococcus neoformans [10] and in the series on Escherichia coli [11] was over 32 µg/mL in each case. Also, the minimal inhibitory concentration (MIC) – broadly, the lowest concentration found to suppress growth – against Candida albicans [15] stood at 16 µg/mL (≈ 45.6 µM). For the same compound, the 50% cytotoxic concentration (CC50) – broadly, the concentration that lowers cell viability or growth by half – at 18 h in series [12] was over 32 µg/mL.
